Source: paper PMC9849758, “Chemically diverse activity-based probes with unexpected inhibitory mechanisms targeting trypsin-like serine proteases” (Frontiers in Chemistry, 2023)
Counter-ions that a name gives are not always drawn. Like-named read-outs stand apart in the source and are kept apart here.

Assays:
Assay in all cases: IC50 determination, spectrophotometric protease assay
Format in all cases: biochemical
[1] = biological target: T1, Trypsin-3 (recombinant trypsin-3) (Homo sapiens, UniProt P35030); conditions: for Trypsin-3 IC50: alkyne probes
T1 construct: purchased R&D
T1 sequence (P35030 1-304): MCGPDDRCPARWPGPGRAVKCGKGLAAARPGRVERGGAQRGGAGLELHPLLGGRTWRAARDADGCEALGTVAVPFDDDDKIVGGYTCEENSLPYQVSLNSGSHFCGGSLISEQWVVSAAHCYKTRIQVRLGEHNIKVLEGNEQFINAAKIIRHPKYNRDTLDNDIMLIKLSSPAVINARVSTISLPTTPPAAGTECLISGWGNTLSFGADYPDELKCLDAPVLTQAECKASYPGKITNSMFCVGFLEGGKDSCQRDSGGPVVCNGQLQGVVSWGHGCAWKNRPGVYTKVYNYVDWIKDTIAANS
Experimental: (§1) The IC50 values were determined using a spectrophotometric assay. All the experiments were conducted in duplicate. The readout consisted of evaluating the protease-mediated release of the chromophore para-nitroaniline (pNA) or fluorophore 7-amino-4-methyl coumarin (AMC) moieties from the respective substrates. Enzymatic activity was measured for 30 min at 37°C. All compounds were initially screened at three concentrations (10, 1, and .1 μM) to estimate the range of the IC50 value. Those which were able to reduce protease activity by at least 50% at a concentration of 10 μM were submitted to an exact IC50 determination. […] A third independent experiment was performed when the standard deviation of the two independent experiments was higher than […]. IC50 values were obtained by fitting the data with the four-parameter logistics equation using GraphPad Prism 9.
(§2) The conditions for each protease are described as follows, the concentration of substrate used was at the corresponding Km.

[2] = biological target: T2, Neutrophil Elastase (recombinant neutrophil elastase) (Homo sapiens, UniProt P08246); conditions: for NE IC50: alkyne probes
T2 construct: purchased Enzo LifeSciences
T2 sequence (P08246 30-267): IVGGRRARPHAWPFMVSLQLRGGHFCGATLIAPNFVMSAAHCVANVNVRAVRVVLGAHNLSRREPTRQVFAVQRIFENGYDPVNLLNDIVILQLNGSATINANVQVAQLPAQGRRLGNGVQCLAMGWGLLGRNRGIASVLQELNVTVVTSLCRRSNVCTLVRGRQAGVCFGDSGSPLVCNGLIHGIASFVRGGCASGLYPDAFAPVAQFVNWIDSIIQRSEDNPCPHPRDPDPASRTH
Experimental: as §1, §2

[3] = biological target: T3, Thrombin (recombinant thrombin) (Homo sapiens, UniProt P00734)
T3 construct: purchased R&D
Experimental: as §1, §2

[4] = biological target: T4, Cathepsin G (cathepsin G human neutrophil) (Homo sapiens, UniProt P08311); conditions: for CatG IC50: alkyne probes
T4 construct: Cathepsin G (cathepsin G human neutrophil, Sigma-Aldrich); purchased Sigma-Aldrich; host or cells: human neutrophil
T4 sequence (P08311 21-255): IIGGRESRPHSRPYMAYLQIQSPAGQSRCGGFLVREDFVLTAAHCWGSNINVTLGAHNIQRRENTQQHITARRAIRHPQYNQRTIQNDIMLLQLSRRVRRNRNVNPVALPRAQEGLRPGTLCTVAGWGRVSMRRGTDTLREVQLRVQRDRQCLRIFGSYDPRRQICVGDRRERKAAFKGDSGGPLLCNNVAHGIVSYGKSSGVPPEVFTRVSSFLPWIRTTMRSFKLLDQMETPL
Experimental: as §1, §2

[5] = biological target: T5, TLCK-treated pancreatic bovine chymotrypsin (Bos taurus, UniProt P00766); conditions: for ChTryp IC50: alkyne probes
T5 construct: TLCK-treated pancreatic bovine chymotrypsin (Sigma-Aldrich); purchased Sigma-Aldrich; host or cells: bovine pancreas
Experimental: as §1, §2

[6] = biological target: T6, β-tryptase (recombinant tryptase β-2) (Homo sapiens, UniProt P20231)
T6 construct: purchased EnzoLife Sciences
T6 sequence (P20231 31-275): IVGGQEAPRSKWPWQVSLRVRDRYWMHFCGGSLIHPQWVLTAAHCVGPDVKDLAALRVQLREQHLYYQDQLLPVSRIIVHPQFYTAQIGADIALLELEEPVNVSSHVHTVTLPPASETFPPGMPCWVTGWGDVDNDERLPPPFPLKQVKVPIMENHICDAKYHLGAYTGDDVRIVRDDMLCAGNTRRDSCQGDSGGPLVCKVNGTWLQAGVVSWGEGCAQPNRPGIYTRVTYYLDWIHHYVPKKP
Experimental: as §1, §2

[7] = biological target: T7, uPA (recombinant urokinase plasminogen activator) (Homo sapiens, UniProt P00749)
T7 construct: purchased HYPHEN BioMed
Experimental: as §1, §2

[8] = 15 min preincubation at 37°C, mean ± SD
[9] = read-out: Trypsin-3 IC50, desthiobiotin probes, 15 min preincubation at 37°C, mean ± SD
[10] = read-out: NE IC50, desthiobiotin probes, 15 min preincubation at 37°C, mean ± SD
[11] = read-out: Thrombin IC50, desthiobiotin probes, 15 min preincubation at 37°C, mean ± SD
[12] = read-out: CatG IC50, desthiobiotin probes, 15 min preincubation at 37°C, mean ± SD
[13] = read-out: ChTryp IC50, desthiobiotin probes, 15 min preincubation at 37°C, mean ± SD
[14] = read-out: β-tryptase IC50, desthiobiotin probes, 15 min preincubation at 37°C, mean ± SD
[15] = read-out: uPA IC50, desthiobiotin probes, 15 min preincubation at 37°C, mean ± SD
[16] = alkyne probes, 15 min preincubation at 37°C, mean ± SD

SMILES | IC50 [1] | IC50 [2] | IC50 [3] | IC50 [4] | IC50 [5] | IC50 [6] | IC50 [7] | further results
C#CCCCOC(=O)NC(Cc1ccc(N)cc1)P(=O)(Oc1ccccc1)Oc1ccccc1 (stereo not drawn) [16b] | 6.85 ± 0.8 µM | > 10 µM | > 10 µM | 3.74 ± 0.27 µM | 2670 ± 570 nM | > 10 µM | > 10 µM | 
C#CCCCOC(=O)NC(CCCCN)P(=O)(Oc1ccc(NC(=O)OC)cc1)Oc1ccc(NC(=O)OC)cc1 (stereo not drawn) [30b] | 0.006 ± 0.0006 µM | > 10 µM | 1.18 ± 0.07 µM | 0.56 ± 0.002 µM | > 10000 nM | 0.68 ± 0.05 µM | 2.44 ± 0.35 µM | Trypsin-3 IC50 [1, 8]: nanomolar inhibition
C#CCCCOC(=O)NC(c1ccc(N)cc1)P(=O)(Oc1ccc(NC(C)=O)cc1)Oc1ccc(NC(C)=O)cc1 (stereo not drawn) [20b] |  |  |  | > 10 µM |  | > 10 µM | > 10 µM | 
O=C(CCCCC1SCC2NC(=O)NC21)NCCOCCOCCOCCn1cc(CCCOC(=O)NC(Cc2ccccc2)P(=O)(Oc2ccccc2)Oc2ccccc2)nn1 (stereo not drawn) [compound 43] |  |  |  |  |  |  |  | IC50 ([1]; read-out: Trypsin-3 IC50, biotin probes, 15 min preincubation at 37 °C, mean ± SD): > 10 µM; IC50 ([2]; read-out: NE IC50, biotin probes, 15 min preincubation at 37 °C, mean ± SD): > 10 µM; IC50 ([3]; read-out: Thrombin IC50, biotin probes, 15 min preincubation at 37 °C, mean ± SD): > 10 µM; IC50 ([4]; read-out: CatG IC50, biotin probes, 15 min preincubation at 37 °C, mean ± SD): 2.77 µM; IC50 ([5]; read-out: ChTryp IC50, biotin probes, 15 min preincubation at 37 °C, mean ± SD): 2640 nM; IC50 ([6]; read-out: β-tryptase IC50, biotin probes, 15 min preincubation at 37 °C, mean ± SD): > 10 µM; IC50 ([7]; read-out: uPA IC50, biotin probes, 15 min preincubation at 37 °C, mean ± SD): > 10 µM
C#CCCCOC(=O)NC(Cc1ccc(N)cc1)P(=O)(Oc1ccc(Cl)cc1)Oc1ccc(Cl)cc1 (stereo not drawn) [18b] | 1.72 ± 0.19 µM | > 10 µM | 7.88 ± 0.61 µM | 0.36 ± 0.01 µM | 190 ± 140 nM | > 10 µM | 6.38 ± 0.52 µM | CatG IC50 [4, 8]: submicromolar; ChTryp IC50 [5, 8]: submicromolar
CC(=O)Nc1ccc(OP(=O)(Oc2ccc(NC(C)=O)cc2)C(CCCCN)NC(=O)OCCCc2cn(CCOCCOCCOCCNC(=O)CCCCC[C@H]3NC(=O)N[C@H]3C)nn2)cc1 (stereo partly drawn) [49b, 3-(1-(18-((4R,5S)-5-methyl-2-oxoimidazolidin-4-yl)-13-oxo-3,6,9-trioxa-12-azaoctadecyl)-1H-1,2,3-triazol-4-yl)propyl (5-amino-1-(bis(4-acetamidophenoxy)phosphoryl)pentyl)carbamate trifluoroacetate salt] |  |  |  |  |  |  |  | IC50 [1, 9]: 0.09 ± 0.005 µM; IC50 [2, 10]: > 10 µM; IC50 [3, 11]: 1.18 ± 0.04 µM; IC50 [4, 12]: 4.47 ± 0.51 µM; IC50 [5, 13]: > 10000 nM; IC50 [6, 14]: 1.11 ± 0.05 µM; IC50 [7, 15]: 6.75 ± 0.52 µM
C#CCCCOC(=O)NC(Cc1ccc(CNC(=N)N)cc1)P(=O)(Oc1ccccc1)Oc1ccccc1 (stereo not drawn) [40b] | > 10 µM | > 10 µM | > 10 µM | 6.16 ± 0.48 µM | > 10000 nM | > 10 µM | > 10 µM | 
C[C@@H]1NC(=O)N[C@@H]1CCCCCC(=O)NCCOCCOCCOCCn1cc(CCCOC(=O)NC(CCCCN)P(=O)(Oc2ccccc2)Oc2ccccc2)nn1 (stereo partly drawn) [47b] |  |  |  |  |  |  |  | IC50 [1, 9]: 0.52 ± 0.24 µM; IC50 [2, 10]: > 10 µM; IC50 [3, 11]: 3.55 ± 0.17 µM; IC50 [4, 12]: > 10 µM; IC50 [5, 13]: > 10000 nM; IC50 [6, 14]: 2.49 ± 0.19 µM; IC50 [7, 15]: 4.62 ± 0.17 µM
C[C@@H]1NC(=O)N[C@@H]1CCCCCC(=O)NCCOCCOCCOCCn1cc(CCCOC(=O)NC(Cc2ccccc2)P(=O)(Oc2ccccc2)Oc2ccccc2)nn1 (stereo partly drawn) [compound 42] | > 10 µM | > 10 µM | > 10 µM | 3.23 ± 0.29 µM | 2070 ± 850 nM | > 10 µM | > 10 µM | 
C#CCCCOC(=O)NC(c1ccc(N)cc1)P(=O)(Oc1ccccc1)Oc1ccccc1 (stereo not drawn) [19b] | 9.06 ± 1.1 µM | > 10 µM | 6.59 ± 3.9 µM | > 10 µM | 8520 ± 1810 nM | > 10 µM | > 10 µM | 
C#CCCCOC(=O)NC(Cc1ccc(N)cc1)P(=O)(Oc1ccc(NC(C)=O)cc1)Oc1ccc(NC(C)=O)cc1 (stereo not drawn) [17b] | 3.71 ± 0.71 µM | > 10 µM | 2.97 ± 0.07 µM | 0.37 ± 0.008 µM | 490 ± 280 nM | > 10 µM | > 10 µM | CatG IC50 [4, 8]: submicromolar; ChTryp IC50 [5, 8]: submicromolar
C#CCCCOC(=O)NC(CCCN)P(=O)(Oc1ccccc1)Oc1ccccc1.O=C(O)C(F)(F)F (stereo not drawn) [14b] | > 10 µM | > 10 µM | > 10 µM | > 10 µM | > 10000 nM | > 10 µM | > 10 µM | Trypsin-3 IC50 [1, 8]: inactive; NE IC50 [2, 8]: inactive; Thrombin IC50 [3, 16]: inactive; CatG IC50 [4, 8]: inactive; ChTryp IC50 [5, 8]: inactive; β-tryptase IC50 [6, 16]: inactive; uPA IC50 [7, 16]: inactive
C#CCCCOC(=O)NC(c1ccc(N)cc1)P(=O)(Oc1ccc(Cl)cc1)Oc1ccc(Cl)cc1 (stereo not drawn) [21b] |  |  |  | > 10 µM |  | > 10 µM | > 10 µM | 
C#CCCCOC(=O)NC(Cc1ccccc1)P(=O)(Oc1ccccc1)Oc1ccccc1 (stereo not drawn) [compound 12] | > 10 µM | > 10 µM | > 10 µM | > 10 µM | 1540 ± 1340 nM | > 10 µM | > 10 µM | 
C#CCCCOC(=O)NC(Cc1ccc(CN)cc1)P(=O)(Oc1ccccc1)Oc1ccccc1 (stereo not drawn) [22b] | 3.82 ± 0.19 µM | > 10 µM | > 10 µM | 5.26 ± 0.68 µM | > 10000 nM | > 10 µM | 2.3 ± 0.1 µM | 
C#CCCCOC(=O)NC(C(C)C)P(=O)(Oc1ccccc1)Oc1ccccc1 (stereo not drawn) [compound 13] | > 10 µM | > 10 µM | > 10 µM | > 10 µM | > 10000 nM | > 10 µM | > 10 µM | NE IC50 [2, 8]: not potent
